In patent US11945822B2, “Pyrazolo-triazine and/or pyrazolo-pxrimidine derivatives as selective inhibitor of cyclin dependent kinase” (QURIENT CO., LTD., priority 2018, dated 2024):

Target: T1, CDK1/Cyclin B (Homo sapiens, UniProt P06493)
T1 construct: purchased Invitrogen PR4768C
Test: Enzymatic assay for CDK1 (FRET based LANCE Ultra kinase assay)
Format: biochemical
Conditions: read-out: CDK1 enzymatic activity (IC50 range)
Outline: (§1)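 Each CDK complex ([…]) phosphorylated 68 nM ULight-MBP peptide with ATP at Km for 60 min at 23° C., against 8 compound doses (4-fold dilutions). EDTA/Eu-anti-phospho-MBP detection, 60 min, then TR-FRET emission at 615 and 665 nm.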

T1 sequence (P06493 whole entry): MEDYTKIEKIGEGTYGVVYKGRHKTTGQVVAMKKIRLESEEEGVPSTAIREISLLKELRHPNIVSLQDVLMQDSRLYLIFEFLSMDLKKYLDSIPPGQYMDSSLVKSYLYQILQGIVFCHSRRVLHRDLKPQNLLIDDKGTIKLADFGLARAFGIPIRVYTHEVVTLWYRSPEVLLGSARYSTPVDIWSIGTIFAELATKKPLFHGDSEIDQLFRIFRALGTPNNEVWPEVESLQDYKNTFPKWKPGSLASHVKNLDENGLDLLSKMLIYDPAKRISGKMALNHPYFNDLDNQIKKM
T1 sequence (P14635 whole entry partner): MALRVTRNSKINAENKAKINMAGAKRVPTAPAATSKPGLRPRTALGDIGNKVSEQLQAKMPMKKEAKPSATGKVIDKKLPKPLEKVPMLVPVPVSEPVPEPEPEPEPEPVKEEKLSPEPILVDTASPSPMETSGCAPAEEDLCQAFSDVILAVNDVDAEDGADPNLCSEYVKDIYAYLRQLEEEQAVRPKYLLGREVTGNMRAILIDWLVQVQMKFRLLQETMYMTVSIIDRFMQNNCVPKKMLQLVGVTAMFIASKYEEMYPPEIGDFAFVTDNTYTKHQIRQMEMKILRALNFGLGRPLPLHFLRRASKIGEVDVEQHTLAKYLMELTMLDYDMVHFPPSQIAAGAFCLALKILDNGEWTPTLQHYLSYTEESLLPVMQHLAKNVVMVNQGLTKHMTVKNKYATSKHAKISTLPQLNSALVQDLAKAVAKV

Row | IC50 | SMILES
1 | > 1 µM | CC(C)c1cnn2c(NCc3c(Cl)cccc3-n3cc4c(n3)CCNC4=O)nc(N3CCC(N)CC3)nc12 [Compound 189]
2 | 0.1 to 1 µM | CC(C)c1cnn2c(NCc3ccccc3-n3ccc(CO)n3)nc(N3CCC(N)CC3)nc12 [Compound 181]
3 | > 1 µM | CNC(=O)c1cccc(F)c1CNc1nc(N2CCC(N)CC2)nc2c(C(C)(C)C)cnn12 [Compound 20]
4 | > 1 µM | CC(C)(C)c1cnn2c(NCc3c(F)cccc3-n3cccn3)nc(N3CCC(N)CC3)nc12 [Compound 13]

Target: T2, CDK2/Cyclin A (Homo sapiens, UniProt P24941)
T2 construct: purchased Invitrogen PV6290
Test: Enzymatic assay for CDK2 (FRET based LANCE Ultra kinase assay)
Format: biochemical
Conditions: read-out: CDK2 enzymatic activity (IC50 range)
Outline: as §1

Row | IC50 | SMILES
5 | > 1 µM | CC(C)c1cnn2c(NCc3c(Cl)cccc3-n3cc4c(n3)CCNC4=O)nc(N3CCC(N)CC3)nc12 [Compound 189]
6 | 0.1 to 1 µM | CC(C)c1cnn2c(NCc3ccccc3-n3ccc(CO)n3)nc(N3CCC(N)CC3)nc12 [Compound 181]
7 | > 1 µM | CNC(=O)c1cccc(F)c1CNc1nc(N2CCC(N)CC2)nc2c(C(C)(C)C)cnn12 [Compound 20]
8 | > 1 µM | CC(C)(C)c1cnn2c(NCc3c(F)cccc3-n3cccn3)nc(N3CCC(N)CC3)nc12 [Compound 13]

Target: T3, CDK5/p25 (Homo sapiens, UniProt Q00535)
T3 construct: purchased Invitrogen PR8543B
Test: Enzymatic assay for CDK5 (FRET based LANCE Ultra kinase assay)
Format: biochemical
Conditions: read-out: CDK5 enzymatic activity (IC50 range)
Outline: as §1

T3 sequence (Q00535 whole entry): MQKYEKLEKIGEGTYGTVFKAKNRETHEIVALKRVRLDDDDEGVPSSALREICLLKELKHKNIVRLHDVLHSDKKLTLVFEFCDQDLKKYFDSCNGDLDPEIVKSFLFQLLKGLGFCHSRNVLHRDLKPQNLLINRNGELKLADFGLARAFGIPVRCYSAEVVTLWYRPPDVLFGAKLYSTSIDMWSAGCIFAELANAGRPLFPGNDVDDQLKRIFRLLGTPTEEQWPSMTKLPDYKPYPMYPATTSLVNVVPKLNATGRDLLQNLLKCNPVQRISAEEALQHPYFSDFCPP
T3 sequence (Q15078 99-307 partner limits assumed): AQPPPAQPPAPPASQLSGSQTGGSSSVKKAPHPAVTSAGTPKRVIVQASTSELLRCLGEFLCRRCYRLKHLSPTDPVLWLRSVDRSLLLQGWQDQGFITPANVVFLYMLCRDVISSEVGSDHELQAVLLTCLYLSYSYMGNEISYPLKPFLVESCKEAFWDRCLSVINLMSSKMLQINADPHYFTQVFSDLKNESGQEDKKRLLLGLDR

Row | IC50 | SMILES
9 | 0.1 to 1 µM | CC(C)c1cnn2c(NCc3c(Cl)cccc3-n3cc4c(n3)CCNC4=O)nc(N3CCC(N)CC3)nc12 [Compound 189]
10 | 0.1 to 1 µM | CC(C)c1cnn2c(NCc3ccccc3-n3ccc(CO)n3)nc(N3CCC(N)CC3)nc12 [Compound 181]
11 | > 1 µM | CNC(=O)c1cccc(F)c1CNc1nc(N2CCC(N)CC2)nc2c(C(C)(C)C)cnn12 [Compound 20]
12 | 0.1 to 1 µM | CC(C)(C)c1cnn2c(NCc3c(F)cccc3-n3cccn3)nc(N3CCC(N)CC3)nc12 [Compound 13]

Target: T4, CDK7/Cyclin H/MNAT1 (Homo sapiens, UniProt P50613)
T4 construct: purchased Invitrogen PR6749B
Test: Enzymatic assay for CDK7 (FRET based LANCE Ultra kinase assay)
Format: biochemical
Conditions: CDK7 over CDK1
Outline: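 Inhibition was measured at Km ATP by time-resolved FRET between a Eu anti-phospho antibody and a phosphorylated ULight peptide. The enzyme was the purified CDK7/cyclin complex, and data were curve-fitted.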

T4 sequence (P50613 whole entry): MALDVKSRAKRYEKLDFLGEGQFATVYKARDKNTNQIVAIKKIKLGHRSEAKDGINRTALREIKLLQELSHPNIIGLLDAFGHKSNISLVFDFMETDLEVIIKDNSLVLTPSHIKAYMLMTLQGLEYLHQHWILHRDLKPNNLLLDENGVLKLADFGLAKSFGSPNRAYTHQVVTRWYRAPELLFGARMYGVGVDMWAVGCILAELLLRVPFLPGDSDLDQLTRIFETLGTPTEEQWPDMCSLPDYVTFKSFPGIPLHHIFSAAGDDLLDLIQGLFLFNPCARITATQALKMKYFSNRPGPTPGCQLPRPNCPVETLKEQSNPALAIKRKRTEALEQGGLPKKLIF
T4 sequence (P51946 whole entry partner): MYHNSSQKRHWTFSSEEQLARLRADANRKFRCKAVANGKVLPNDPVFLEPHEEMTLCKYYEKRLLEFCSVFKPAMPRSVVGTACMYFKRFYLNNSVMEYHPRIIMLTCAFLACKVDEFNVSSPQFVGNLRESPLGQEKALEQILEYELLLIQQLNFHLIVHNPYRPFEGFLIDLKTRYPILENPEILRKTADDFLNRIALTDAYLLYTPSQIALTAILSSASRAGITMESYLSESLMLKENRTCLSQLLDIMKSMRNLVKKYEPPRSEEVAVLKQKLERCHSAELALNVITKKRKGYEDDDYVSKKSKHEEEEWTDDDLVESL
T4 sequence (P51948 whole entry partner): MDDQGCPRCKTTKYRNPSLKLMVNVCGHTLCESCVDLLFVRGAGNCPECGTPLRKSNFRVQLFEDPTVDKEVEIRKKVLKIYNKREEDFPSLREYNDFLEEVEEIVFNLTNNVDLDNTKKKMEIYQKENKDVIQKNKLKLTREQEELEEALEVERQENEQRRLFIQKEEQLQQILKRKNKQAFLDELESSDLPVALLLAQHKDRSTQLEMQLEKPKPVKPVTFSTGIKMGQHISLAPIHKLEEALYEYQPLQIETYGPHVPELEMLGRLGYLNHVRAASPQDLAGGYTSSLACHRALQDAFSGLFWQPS

Row | CDK1/CDK7: Selectivity of CDK7 inhibition over CDK1 inhibition | SMILES
13 | A (A=greater than 200 fold) | CC(C)c1cnn2c(NCc3c(Cl)cccc3-n3cc4c(n3)CCNC4=O)nc(N3CCC(N)CC3)nc12 [Compound 189]
14 | A (A=greater than 200 fold) | CNC(=O)c1cccc(F)c1CNc1nc(N2CCC(N)CC2)nc2c(C(C)(C)C)cnn12 [Compound 20]
15 | A (A=greater than 200 fold) | CC(C)(C)c1cnn2c(NCc3c(F)cccc3-n3cccn3)nc(N3CCC(N)CC3)nc12 [Compound 13]

Row | SMILES | CDK1/CDK7: Selectivity of CDK7 inhibition over CDK1 inhibition
16 | CC(C)c1cnn2c(NCc3ccccc3-n3ccc(CO)n3)nc(N3CCC(N)CC3)nc12 [Compound 181] | B (B=less than 200 fold, but greater than 20 fold)

Same assay, conditions: CDK7 over CDK2

Row | SMILES | CDK2/CDK7: Selectivity of CDK7 inhibition over CDK2 inhibition
17 | CC(C)c1cnn2c(NCc3c(Cl)cccc3-n3cc4c(n3)CCNC4=O)nc(N3CCC(N)CC3)nc12 [Compound 189] | A (A=greater than 200 fold)
18 | CC(C)c1cnn2c(NCc3ccccc3-n3ccc(CO)n3)nc(N3CCC(N)CC3)nc12 [Compound 181] | B (B=less than 200 fold, but greater than 20 fold)
19 | CNC(=O)c1cccc(F)c1CNc1nc(N2CCC(N)CC2)nc2c(C(C)(C)C)cnn12 [Compound 20] | A (A=greater than 200 fold)
20 | CC(C)(C)c1cnn2c(NCc3c(F)cccc3-n3cccn3)nc(N3CCC(N)CC3)nc12 [Compound 13] | B (B=less than 200 fold, but greater than 20 fold)

Same assay, conditions: CDK7 over CDK5

Row | SMILES | CDK5/CDK7: Selectivity of CDK7 inhibition over CDK5 inhibition
21 | CC(C)c1cnn2c(NCc3c(Cl)cccc3-n3cc4c(n3)CCNC4=O)nc(N3CCC(N)CC3)nc12 [Compound 189] | B (B=less than 200 fold, but greater than 20 fold)
22 | CC(C)c1cnn2c(NCc3ccccc3-n3ccc(CO)n3)nc(N3CCC(N)CC3)nc12 [Compound 181] | B (B=less than 200 fold, but greater than 20 fold)
23 | CNC(=O)c1cccc(F)c1CNc1nc(N2CCC(N)CC2)nc2c(C(C)(C)C)cnn12 [Compound 20] | A (A=greater than 200 fold)
24 | CC(C)(C)c1cnn2c(NCc3c(F)cccc3-n3cccn3)nc(N3CCC(N)CC3)nc12 [Compound 13] | B (B=less than 200 fold, but greater than 20 fold)

Same assay, conditions: read-out: CDK7 enzymatic activity (IC50 range)

Row | IC50 | SMILES
25 | < 0.1 µM | CC(C)c1cnn2c(NCc3c(Cl)cccc3-n3cc4c(n3)CCNC4=O)nc(N3CCC(N)CC3)nc12 [Compound 189]
26 | < 0.1 µM | CC(C)c1cnn2c(NCc3ccccc3-n3ccc(CO)n3)nc(N3CCC(N)CC3)nc12 [Compound 181]
27 | < 0.1 µM | CNC(=O)c1cccc(F)c1CNc1nc(N2CCC(N)CC2)nc2c(C(C)(C)C)cnn12 [Compound 20]
28 | < 0.1 µM | CC(C)(C)c1cnn2c(NCc3c(F)cccc3-n3cccn3)nc(N3CCC(N)CC3)nc12 [Compound 13]

Tested on: HCT116
Test: Cellular HCT116 viability assay (CellTiter-Glo, 72 hours)
Format: cell-based
Conditions: Homo sapiens, HCT-116
Outline: (§2)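 Luminescent ATP read-out (CellTiter-Glo) after 72 h compound exposure at 37 °C/5% CO2; duplicate wells; vehicle control DMSO <0.1% final; seeding density set per cell line.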

Row | IC50 | SMILES
29 | < 1 µM | CC(C)c1cnn2c(NCc3c(Cl)cccc3-n3cc4c(n3)CCNC4=O)nc(N3CCC(N)CC3)nc12 [Compound 189]
30 | < 1 µM | CC(C)c1cnn2c(NCc3ccccc3-n3ccc(CO)n3)nc(N3CCC(N)CC3)nc12 [Compound 181]

Tested on: H460
Test: Cellular H460 viability assay (CellTiter-Glo, 72 hours)
Format: cell-based
Conditions: Homo sapiens, NCI-H460
Outline: as §2

Row | IC50 | SMILES
31 | < 1 µM | CC(C)c1cnn2c(NCc3c(Cl)cccc3-n3cc4c(n3)CCNC4=O)nc(N3CCC(N)CC3)nc12 [Compound 189]
32 | < 1 µM | CC(C)c1cnn2c(NCc3ccccc3-n3ccc(CO)n3)nc(N3CCC(N)CC3)nc12 [Compound 181]
33 | < 1 µM | CNC(=O)c1cccc(F)c1CNc1nc(N2CCC(N)CC2)nc2c(C(C)(C)C)cnn12 [Compound 20]
34 | < 1 µM | CC(C)(C)c1cnn2c(NCc3c(F)cccc3-n3cccn3)nc(N3CCC(N)CC3)nc12 [Compound 13]

Tested on: MM.1S
Test: Cellular MM.1S viability assay (CellTiter-Glo, 72 hours)
Format: cell-based
Conditions: Homo sapiens, MM1.S
Text: Human T-cell acute lymphoblastic leukemia cell line, MOLT-4 (ATCC, Cat #CRL-1582), Human multiple myeloma cell line, RPMI-8226 (Invitrogen, Cat #22400-089) and MM.1S (ATCC, Cat #CRL-2974), NSCLC (Non-small cell lung cancer) cell line H460 (ATCC, Cat #HTB-177), Human colon colorectal carcinoma cell line HCT116 (ATCC, Cat #CCL-247), Human acute monocytic leukemia cell line MV4-11 (ATCC, Cat #CRL-9591), OVCAR-3 (ATCC, Cat #HTB-161) and A2780 (ECACC, Cat #93112519) were obtained from ATCC. Cells were grown in RPMI-1640 media (Invitrogen, Cat #22400-089) supplemented with 10% FBS (Invitrogen, Cat #10099141) and 1% penicillin/streptomycin (Invitrogen, Cat #15070063) and cultured at 37° C., 5% CO2 in a humidified chamber. All cell lines were routinely tested for mycoplasma.
The effect of the CDK7 inhibitor to inhibit the growth of target cancer cells was evaluated through the 72 hours time period of viability assay. Briefly, the candidate cell line ware plated in 96 well plate at the following density of cells respectively. 1×10^4 cells/well for MOLT-4, RPMI-8226, MV4-11 and MM.1S, 5×10^3 for H460, HCT116 and OVCAR-3 and IX 10^3 for A2780. After 24 hours, the cells were treated with various concentrations of the compound (ranging from 0.0015 uM to 10 uM). DMSO solvent without compound served as a control and final DMSO concentration less than 0.1%. After 72 hours of incubation at 37° C., 5% CO2 incubator, cells were analyzed for the viability using the CellTiter-Glo Luminescent Cell Viability Assay (Promega, Cat #G7570). All viability assays were performed in duplicate and Luminescence was read using an Envision (Perkin Elmer, USA). Data was analyzed using XLfit software.

Row | IC50 | SMILES
35 | ≤ 1 µM | CC(C)c1cnn2c(NCc3c(Cl)cccc3-n3cc4c(n3)CCNC4=O)nc(N3CCC(N)CC3)nc12 [Compound 189]
36 | ≤ 1 µM | CC(C)c1cnn2c(NCc3ccccc3-n3ccc(CO)n3)nc(N3CCC(N)CC3)nc12 [Compound 181]
37 | 1 to 10 µM | CNC(=O)c1cccc(F)c1CNc1nc(N2CCC(N)CC2)nc2c(C(C)(C)C)cnn12 [Compound 20]
38 | ≤ 1 µM | CC(C)(C)c1cnn2c(NCc3c(F)cccc3-n3cccn3)nc(N3CCC(N)CC3)nc12 [Compound 13]

Tested on: MV4-11
Test: Cellular MV4-11 viability assay (CellTiter-Glo, 72 hours)
Format: cell-based
Conditions: Homo sapiens
Outline: as §2

Row | IC50 | SMILES
39 | < 1 µM | CC(C)c1cnn2c(NCc3c(Cl)cccc3-n3cc4c(n3)CCNC4=O)nc(N3CCC(N)CC3)nc12 [Compound 189]
40 | < 1 µM | CC(C)c1cnn2c(NCc3ccccc3-n3ccc(CO)n3)nc(N3CCC(N)CC3)nc12 [Compound 181]
41 | < 1 µM | CNC(=O)c1cccc(F)c1CNc1nc(N2CCC(N)CC2)nc2c(C(C)(C)C)cnn12 [Compound 20]
